Data taken from the SangsterLogP compilation.

How the values were obtained:
[1] = method code SF, from DOI: 10.1021/jm0498699.s001, PMID: 15163209
[2] = method code SF-AS, from PMID: 7849133; conditions: pH 3.6
[3] = method code SF-AS, from DOI: 10.1021/jm00392a004, PMID: 3625703; conditions: pH 6.9
[4] = not given; remark: listed apart in the source
[5] = not given; remark: listed apart in the source
[6] = method code SF-AS, from DOI: 10.1016/0378-5173(88)90083-x; conditions: pH 7.3
[7] = not given; remark: listed apart in the source
[8] = not given; remark: listed apart in the source
[9] = method code SF-AS, from PMID: 11446164; conditions: pH 5.9
[10] = method code SF-AS, from DOI: 10.1021/jm991080o, PMID: 10579844; conditions: pH 7.4
[11] = method code SF-AS, from DOI: 10.1002/jps.2600741028, PMID: 4078715
[12] = not given; remark: listed apart in the source
[13] = method code SF-AS, from DOI: 10.1016/0048-3575(87)90152-0
[14] = from Afshan, A.; Jehangir, M.; Amin, W.; Mujahid, A. (2000). Study of various esters of ethylcysteine acid dimer as brain perfusion imaging agents and formulation into single vial kit for labelling with …; conditions: pH 7.5
[15] = method code SF-RC, from DOI: 10.1002/jlcr.1863; conditions: pH 7.4
[16] = method code SF-HPLC, from DOI: 10.1111/j.1747-0285.2011.01193.x, PMID: 21777394; conditions: pH 7.4
[17] = method code SF-AS, from DOI: 10.1021/jm00384a018, PMID: 3806586
[18] = not given; remark: listed apart in the source
[19] = method code SF-RC, from DOI: 10.1021/es00096a007
[20] = method code SF, from PMID: 8265709; conditions: pH 7.4
[21] = method code SF-RC, from DOI: 10.1002/ps.2780240105; conditions: pH 7.0
[22] = not given; remark: listed apart in the source
[23] = method code SF-RC, from DOI: 10.1016/j.nucmedbio.2009.09.005, PMID: 20447558; conditions: pH 7.4
[24] = pH 7.4
[25] = method code SF-AS, from PMID: 19779; conditions: pH 2.0
[26] = method code SF-HPLC, from DOI: 10.1021/jm030477w, PMID: 15084119; conditions: pH 7.4
[27] = method code SF-RC, from DOI: 10.1021/jm901850k, PMID: 20411954; conditions: pH 7.4
[28] = method code SF, from DOI: 10.1021/jm950585l, PMID: 8632436
[29] = method code SF-AS, from DOI: 10.1021/jm00160a012, PMID: 3761307; conditions: pH 7.4
[30] = method code SF-RC, from DOI: 10.1016/s0969-8051(98)00005-5, PMID: 9720665; conditions: pH 7.0
[31] = method code SF, from DOI: 10.1007/bf01610114, PMID: 6839039
[32] = method code SF-RC, from DOI: 10.1021/jm0607193, PMID: 17004725
[33] = method code SF-AS, from DOI: 10.1002/ardp.19843170314
[34] = method code SF, from DOI: 10.1016/0048-3575(74)90109-6
[35] = method code SF-HPLC, from DOI: 10.1016/0928-0987(95)00046-1; conditions: pH 4.0
[36] = not given; remark: listed apart in the source
[37] = method code SF-AS, from DOI: 10.1021/jm00254a028, PMID: 4845386
[38] = method code SF, from DOI: 10.1021/jm00019a019, PMID: 7562920; conditions: pH 10.0
[39] = method code SF-RC, from DOI: 10.1111/j.2042-7158.1987.tb06949.x, PMID: 2882008; conditions: pH 1.0
[40] = method code SF-AS, from DOI: 10.1016/0223-5234(94)90063-9; conditions: pH 2.0
[41] = method code SF-GLC, from DOI: 10.1002/ps.2780120408; conditions: pH 7.0
[42] = not given; remark: listed apart in the source
[43] = method code SF-AS, from DOI: 10.1002/jps.2600620542, PMID: 4705706
[44] = method code SF-RC, from PMID: 1811623
[45] = method code SF, from DOI: 10.1016/0048-3575(89)90162-4
[46] = not given; remark: listed apart in the source
[47] = method code RP-HPLC, from DOI: 10.1016/0143-7208(91)85018-4; conditions: pH 7.0
[48] = method code SF, from DOI: 10.3109/00498258909043190, PMID: 2618089; conditions: pH 10.8

COC(=O)CCNC(=O)c1cc(N2CC2)c([N+](=O)[O-])cc1[N+](=O)[O-]
logP [1]: 0.56

O=C(O)c1cccnc1Nc1cccc(C(F)(F)F)c1
logD [2]: 2.95

O=C(O)C1(O)c2ccccc2-c2ccc(Cl)cc21 (centres undefined)
logP: 3.22

CCCCC1(c2ccncc2)CCC(=O)NC1=O (centres undefined)
logD [3]: 1.68

Ic1ccc2nc(-c3ccc(-c4nnn[nH]4)cc3)cn2c1
logP [4]: 1.73

c1ccc(CCc2ccccc2)cc1
logP [5]: 4.6

O=C(c1ccc(Cl)cc1)c1cc(F)ccc1O
logD [6]: 4.05

CCn1cc(C(=O)O)c(=O)c2cc3nc[nH]c3cc21
logP [7]: 0.41

C(=C\c1ccccc1)/c1ccccc1
logP [8]: 4.59

O=C1N=C(N2CCOCC2)CN1c1ccc(Cl)cc1
logD [9]: 1.32

CCc1c(O)c(=O)ccn1CCOC(=O)C(C)C
logD [10]: 0.7

COc1ccc(C=[N+]([O-])c2ccccc2)cc1
logP [11]: 1.94

CCCCC(O)(Cn1cncn1)c1ccc(Cl)cc1Cl (centres undefined)
logP [12]: 3.9

CCC(C(=O)Oc1ccccc1)C(C)C (centres undefined)
logP [13]: 4.2

CCOC(=O)[C@H](CS)NCCN[C@@H](CS)C(=O)OCC
logD [14]: 1.4

O=c1[nH]c(=O)n(C2CC(O)C(CO)O2)cc1-c1cn(CCF)nn1 (centres undefined)
logD [15]: -1.33

C[C@@H](OC(=O)N(N(CCCl)S(C)(=O)=O)S(C)(=O)=O)c1ccc([N+](=O)[O-])cc1
logD [16]: 2.15

CC(=O)C1=CCCN(NC(=O)c2ccccc2)C1
logP [17]: -0.1

OC(Cn1cncn1)(Cn1cncn1)c1ccc(Cl)cc1Cl
logP [18]: 1.1

Nc1ccc2cc3ccccc3cc2c1
logP [19]: 4.13

Cc1c(C(C)C)c(=O)n(-c2ccccc2)n1C
logD [20]: 1.94

CCCCc1c(C)nc(NCC)nc1OS(=O)(=O)N(C)C
logD [21]: 2.7

CCN(CC)CCOC(=O)c1ccc(N)cc1
logP [22]: 2.1

CN(CCc1ccccc1)C(=O)c1ccc[nH]1
logD [23]: 1.65

CCCC(=O)OCOC(=O)c1ccccc1OC(C)=O
logD [24]: 2.5

CCC1(c2ccccc2)C(=O)NC(=O)N(C)C1=O (centres undefined)
logD [25]: 1.84

Nc1ccc(-c2cn3cc(I)ccc3n2)cc1
logD [26]: 3.58

CON=C1C=C(C#Cc2csc(CF)n2)CCC1
logD [27]: 1.6

Cc1cc2c(ccc3c(C)cc(=O)[nH]c32)o1
logP [28]: 2.21

CC1=C(N)C(=O)c2c(COC(N)=O)c3n(c2C1=O)CC(N1CC1)C3N1CC1 (centres undefined)
logD [29]: 0.23

OC1OC2COC(c3ccc(I)cc3)OC2C(O)C1O (centres undefined)
logD [30]: 1.9

C=CCOC(=O)c1ccccc1C(=O)OCC=C
logP [31]: 3.23

COc1cc(C=CC(=O)C=C(C)O)cc(I)c1O
logP [32]: 1.35

O=C(O)Cc1ccccc1Oc1ccc(Cl)cc1Cl
logP [33]: 4.8

Fc1ccc(C(c2ccc(F)cc2)C(Cl)(Cl)Cl)cc1
logP [34]: 4.62

Cc1cnc(NC(=O)C2=C(O)c3ccccc3S(=O)(=O)N2C)s1
logD [35]: 2.34

O=c1ccn(CCO)c(C(O)c2ccccc2)c1O (centres undefined)
logP [36]: 0.58

OC1c2ccccc2C2CCCCC2C1O (centres undefined)
logP [37]: 2.47

CNc1ncnc2c1ncn2Cc1ccccc1F
logD [38]: 1.86

Cc1c(Cl)cccc1Nc1ccccc1C(=O)O
logD [39]: 4.18

Cn1c(CC(=O)O)cnc1C(=O)c1ccccc1
logD [40]: 0.22

CCOP(=S)(Oc1ccc([N+](=O)[O-])cc1)c1ccccc1 (centres undefined)
logD [41]: 3.85

CC1c2nc3ccccc3c(=O)n2CCN1C (centres undefined)
logP [42]: 0.64

COc1ccc(C(=O)c2ccncc2)cc1
logP [43]: 1.94

Cc1c(C)c2ccc3occc3c2oc1=O
logP [44]: 2.9

OC1(c2ccccc2Cl)CCCCC1n1cncn1 (centres undefined)
logP [45]: 2.68

Cc1cc(NC(=O)C2=C(O)c3ccccc3S(=O)(=O)N2C)no1
logP [46]: 2.83

Nc1ccc(N)c2c1C(=O)c1ccccc1C2=O
logD [47]: 3

O=C(Cn1c(=O)sc2ccc(Cl)cc21)N1CCNCC1
logD [48]: 1.35
